# In patent US20250269043A1, “TARGETED BIFUNCTIONAL DEGRADERS” (YALE UNIVERSITY, priority 2019, published 2025):
# How the values were obtained:
# HepG2 cells [1] = experiment: Subcellular localization and degradation of α-DNP antibody endocytosed with DNP-GN3 (microscopy, western blotting); format: cell-based, human
# Protocol: In addition, western blotting with an antibody directed to Alexa Fluor 488 was used to determine if endocytosed fluorescently labeled α-DNP antibodies are degraded in vitro. […] Signal arising from Alexa Fluor 488 in cell lysates was associated with only full-length antibody after two hours of incubation. After six hours, a lower molecular weight fluorophore-associated protein fragment between 37 and 50 kDa began to appear. An additional protein fragment with a molecular weight between 25 and 37 kDa was observed after 24 hours. […] Together with the above immunofluorescence studies showing the colocalization of α-DNP antibody-derived fluorescence with lysosomes, these studies support that α-DNP antibody degradation is mediated by lysosomal proteases. Lysosomal degradation is further consistent with a mechanism dependent on ASGPR.
# HepG2 cells [2] = experiment: DNP-AF3-mediated α-DNP antibody endocytosis by HepG2 cells (flow cytometry); format: cell-based, human; settings: α-DNP antibody 1 nM
# Protocol: The intracellular fluorescence of cells that were incubated at 37° C. with both fluorescently labeled α-DNP antibody and DNP-AF3 for a given amount of time was examined. Cells were then washed, removed from the plate with trypsin, and subjected to flow cytometry.
# It was then determined if reagents which inhibit ternary complex formation inhibit endocytosis mediated by DNP-AF3.
# Next, whether inhibitors of specific endocytic pathways inhibited α-DNP antibody endocytosis was determined (FIG. 106).
# HepG2 cells [3] = experiment: MIF-GN3-mediated endocytosis of Alexa 488-labeled human MIF by HepG2 cells; settings: FIG. 131
# Protocol: Human MIF protein was fluorescently labeled with Alexa 488 NHS ester, then incubated with HepG2 cells in the presence of varying levels of MIF-GN3.
# The ability of MIF-GN3 to mediate MIF endocytosis over a wide range of target protein concentrations was assessed.
# Next, inhibitors of various endocytic pathways were utilized to determine if MIF-GN3 mediates MIF endocytosis in a manner consistent with ASGPR (FIG. 132).
Structure (SMILES),"colocalization of endocytosed α-DNP antibody with lysosome membrane protein LAMP2 (HepG2 cells [1]; after 12 hours, FIG. 91B)","degradation of endocytosed α-DNP antibody (western blot for Alexa Fluor 488) (HepG2 cells [1]; cell lysates, 2 to 24 hours, FIG. 92A)",uptake of α-DNP antibody at low target protein concentration (HepG2 cells [2]),"fluorescence of cells relative to cells not treated with bifunctional molecule (HepG2 cells [3]; MIF protein 10 nM, 200 nM MIF-GN3) [fold]","MIF uptake at high concentration compared to lower concentrations (HepG2 cells [3]; MIF protein 100 nM, MIF-GN3 5.00 μM)"
CC(=O)NC1C(OCCOCCOCCNC(=O)CCOCC(COCCC(=O)NCCOCCOCCOC2OC(CO)C(O)C(O)C2NC(C)=O)(COCCC(=O)NCCOCCOCCOC2OC(CO)C(O)C(O)C2NC(C)=O)NC(=O)CNC(=O)COCCOCCOCCNc2ccc([N+](=O)[O-])cc2[N+](=O)[O-])OC(CO)C(O)C1O (centres unmarked) [DNP-GN3],strong colocalization,endocytosed α-DNP antibody is degraded in HepG2 cells,not effective,,
CC(=O)N[C@H]1[C@H](OCCOCCOCCNC(=O)CCOCC(COCCC(=O)NCCOCCOCCO[C@@H]2O[C@H](CO)[C@H](O)[C@H](O)[C@H]2NC(C)=O)(COCCC(=O)NCCOCCOCCO[C@@H]2O[C@H](CO)[C@H](O)[C@H](O)[C@H]2NC(C)=O)NC(=O)CNC(=O)CCCOc2ccc3nc(-c4cn(-c5ccc(O)c(F)c5)nn4)ccc3c2)O[C@H](CO)[C@H](O)[C@@H]1O [MIF-GN3],,,,4,slight decrease in MIF uptake
